Test results reported in publication PMC5218480 (PLoS ONE, 2017).

System: MV-4-11 cells
Test: Gene expression microarray analysis (Affymetrix PrimeView) and GSEA
Type: cell-based, human
Set-up: RFU PODN (11730768_x_at) / Fold change /veh PODN (11730768_x_at) / RFU LINC00158 (11744669_a_at) / Fold change /veh LINC00158 (11744669_a_at) / RFU DUSP10 (11751237_a_at) / Fold change /veh DUSP10 (11751237_a_at) / RFU ID3 (11757404_x_at) / Fold change /veh ID3 (11757404_x_at) / RFU PLEKHG5 (11737974_s_at) / Fold change /veh PLEKHG5 (11737974_s_at) / RFU LRRC4B (11730491_at) / Fold change /veh LRRC4B (11730491_at) / RFU GIMAP4 (11747438_a_at) / Fold change /veh GIMAP4 (11747438_a_at) / RFU KRT8 (11758183_x_at) / Fold change /veh KRT8 (11758183_x_at) / RFU CNN1 (11734310_a_at) / Fold change /veh CNN1 (11734310_a_at) / RFU VPS37D (11726825_at) / Fold change /veh VPS37D (11726825_at) / RFU C10orf10 (11716522_x_at) / Fold change /veh C10orf10 (11716522_x_at) / RFU KIR2DL2 /// KIR2DL4 /// KIR2DL5A /// KIR2DL5B /// KIR2DS1 /// KIR2DS2 /// KIR2DS3 /// KIR2DS4 /// KIR3DL3 /// KIR3DL3 /// KIR3DS1 (11738374_at) / Fold change /veh KIR2DL2 /// KIR2DL4 /// KIR2DL5A /// KIR2DL5B /// KIR2DS1 /// KIR2DS2 /// KIR2DS3 /// KIR2DS4 /// KIR3DL3 /// KIR3DL3 /// KIR3DS1 (11738374_at) / RFU C1QL1 (11718748_at) / Fold change /veh C1QL1 (11718748_at) / RFU TMPRSS4 (11747572_a_at) / Fold change /veh TMPRSS4 (11747572_a_at) / RFU HAMP (11756126_x_at) / Fold change /veh HAMP (11756126_x_at) / RFU RNFT2 (11725882_a_at) / Fold change /veh RNFT2 (11725882_a_at) / RFU NR4A2 (11747474_a_at) / Fold change /veh NR4A2 (11747474_a_at) / RFU ABCC12 (11746883_a_at) / Fold change /veh ABCC12 (11746883_a_at) / RFU TMEM136 (11760407_x_at) / Fold change /veh TMEM136 (11760407_x_at) / RFU CLDN22 /// WWC2 (11732394_at) / Fold change /veh CLDN22 /// WWC2 (11732394_at) / RFU HLA-DPB1 (11760878_x_at) / Fold change /veh HLA-DPB1 (11760878_x_at) / RFU SPINT1 (11716480_a_at) / Fold change /veh SPINT1 (11716480_a_at) / RFU GAP43 (11754022_s_at) / Fold change /veh GAP43 (11754022_s_at) / RFU A4GNT (11735810_at) / Fold change /veh A4GNT (11735810_at) / RFU PRB3 (11715151_x_at) / Fold change /veh PRB3 (11715151_x_at) / RFU TUBB4B (11761932_at) / Fold change /veh TUBB4B (11761932_at) / RFU CAPN14 (11732068_a_at) / Fold change /veh CAPN14 (11732068_a_at) / RFU TMCC2 (11721928_a_at) / Fold change /veh TMCC2 (11721928_a_at) / RFU IRGQ (11745062_a_at) / Fold change /veh IRGQ (11745062_a_at) / RFU FAM174B (11720279_a_at) / Fold change /veh FAM174B (11720279_a_at) / RFU TMPRSS4 (11748680_a_at) / Fold change /veh TMPRSS4 (11748680_a_at) / RFU FAM212B (11763350_a_at) / Fold change /veh FAM212B (11763350_a_at) / RFU PLEKHG5 (11743358_a_at) / Fold change /veh PLEKHG5 (11743358_a_at) / RFU ZSCAN30 (11745921_a_at) / Fold change /veh ZSCAN30 (11745921_a_at) / RFU CMKLR1 (11741424_a_at) / Fold change /veh CMKLR1 (11741424_a_at) / RFU LOC101060620 /// MAPK8IP1 (11723275_at) / Fold change /veh LOC101060620 /// MAPK8IP1 (11723275_at) / RFU SPTSSB (11747773_x_at) / Fold change /veh SPTSSB (11747773_x_at) / RFU PRSS12 (11739890_at) / Fold change /veh PRSS12 (11739890_at) / RFU BIN1 (11741810_x_at) / Fold change /veh BIN1 (11741810_x_at) / RFU WNT11 (11732464_a_at) / Fold change /veh WNT11 (11732464_a_at) / RFU C10orf10 (11716521_a_at) / Fold change /veh C10orf10 (11716521_a_at) / RFU C5orf56 (11738089_at) / Fold change /veh C5orf56 (11738089_at) / RFU CYB561 (11721691_x_at) / Fold change /veh CYB561 (11721691_x_at) / RFU ANKRD19P (11752326_a_at) / Fold change /veh ANKRD19P (11752326_a_at) / RFU OR2T12 /// OR2T33 /// OR2T8 (11738714_s_at) / Fold change /veh OR2T12 /// OR2T33 /// OR2T8 (11738714_s_at) / RFU VCAN (11748164_a_at) / Fold change /veh VCAN (11748164_a_at) / RFU JSRP1 (11732532_at) / Fold change /veh JSRP1 (11732532_at) / RFU KRTAP10-11 (11738290_x_at) / Fold change /veh KRTAP10-11 (11738290_x_at) / RFU MYO3A (11730013_a_at) / Fold change /veh MYO3A (11730013_a_at) / RFU EBF3 (11725865_a_at) / Fold change /veh EBF3 (11725865_a_at) / RFU CAMK2N1 (11719241_x_at) / Fold change /veh CAMK2N1 (11719241_x_at) / RFU C5orf56 (11738088_a_at) / Fold change /veh C5orf56 (11738088_a_at) / RFU OLFML3 (11715873_a_at) / Fold change /veh OLFML3 (11715873_a_at) / RFU LOC100653217 /// NTM (11731650_a_at) / Fold change /veh LOC100653217 /// NTM (11731650_a_at) / RFU MAPK11 (11762145_a_at) / Fold change /veh MAPK11 (11762145_a_at) / RFU FIZ1 (11724087_x_at) / Fold change /veh FIZ1 (11724087_x_at) / RFU OASL (11726364_x_at) / Fold change /veh OASL (11726364_x_at) / RFU SOX15 (11748057_x_at) / Fold change /veh SOX15 (11748057_x_at) / RFU CD79A (11719716_a_at) / Fold change /veh CD79A (11719716_a_at) / RFU HIST1H1D (11736915_at) / Fold change /veh HIST1H1D (11736915_at) / RFU CASKIN2 (11723855_a_at) / Fold change /veh CASKIN2 (11723855_a_at) / RFU LOC730098 (11760151_x_at) / Fold change /veh LOC730098 (11760151_x_at) / RFU OR4N2 (11742367_at) / Fold change /veh OR4N2 (11742367_at) / RFU PRRT2 (11749266_a_at) / Fold change /veh PRRT2 (11749266_a_at) / RFU SNX32 (11753110_a_at) / Fold change /veh SNX32 (11753110_a_at) / RFU CDHR5 (11726645_a_at) / Fold change /veh CDHR5 (11726645_a_at) / RFU RCAN1 (11760418_a_at) / Fold change /veh RCAN1 (11760418_a_at) / RFU FAM167A (11723789_a_at) / Fold change /veh FAM167A (11723789_a_at) / RFU FAM26E (11764081_at) / Fold change /veh FAM26E (11764081_at) / RFU ISYNA1 (11749810_s_at) / Fold change /veh ISYNA1 (11749810_s_at) / RFU ACY1 (11761880_at) / Fold change /veh ACY1 (11761880_at) / RFU 11764098_at / Fold change /veh 11764098_at / RFU SAMD14 (11745864_x_at) / Fold change /veh SAMD14 (11745864_x_at) / RFU NPB (11741838_a_at) / Fold change /veh NPB (11741838_a_at) / RFU TMPRSS6 (11731388_a_at) / Fold change /veh TMPRSS6 (11731388_a_at) / RFU KRTAP10-2 (11738614_at) / Fold change /veh KRTAP10-2 (11738614_at) / RFU ARHGAP8 /// PRR5-ARHGAP8 (11727945_x_at) / Fold change /veh ARHGAP8 /// PRR5-ARHGAP8 (11727945_x_at) / RFU KRTAP5-7 /// NADSYN1 (11734609_at) / Fold change /veh KRTAP5-7 /// NADSYN1 (11734609_at) / RFU RASL12 (11751679_a_at) / Fold change /veh RASL12 (11751679_a_at) / RFU CDKN2B (11736163_a_at) / Fold change /veh CDKN2B (11736163_a_at) / RFU PRF1 (11729649_at) / Fold change /veh PRF1 (11729649_at) / RFU, ZNF638 /// ZNF638-IT1 / Fold change vs veh, ZNF638 /// ZNF638-IT1 / RFU, PANK3 / Fold change vs veh, PANK3 / RFU, SH3YL1 / Fold change vs veh, SH3YL1 / RFU, ZEB2 / Fold change vs veh, ZEB2 / RFU, NRIP1 / Fold change vs veh, NRIP1 / RFU, PTTG1IP / Fold change vs veh, PTTG1IP / RFU, CAPN2 / Fold change vs veh, CAPN2 / RFU, MED14 / Fold change vs veh, MED14 / RFU, SNORA58 / Fold change vs veh, SNORA58 / RFU, C1orf63 / Fold change vs veh, C1orf63 / RFU, LRRFIP1 / Fold change vs veh, LRRFIP1 / RFU, NDUFAF7 / Fold change vs veh, NDUFAF7 / RFU, SLC12A2 / Fold change vs veh, SLC12A2 / RFU, IBTK / Fold change vs veh, IBTK / RFU, ESF1 / Fold change vs veh, ESF1 / Fold change vs veh, TMEM50B / RFU, TAOK1 / Fold change vs veh, TAOK1 / RFU, ACBD3 / Fold change vs veh, ACBD3 / RFU, TMA16 / Fold change vs veh, TMA16 / RFU, RWDD3 / Fold change vs veh, RWDD3 / RFU, BCAT1 / Fold change vs veh, BCAT1 / RFU, EDEM3 / Fold change vs veh, EDEM3 / RFU, TMEM33 / Fold change vs veh, TMEM33 / RFU, WDR75 / Fold change vs veh, WDR75 / RFU, AHCTF1 / Fold change vs veh, AHCTF1 / RFU, TFRC / Fold change vs veh, TFRC / RFU, ZDHHC17 / Fold change vs veh, ZDHHC17 / RFU, NOM1 / Fold change vs veh, NOM1 / RFU, ARL8B / Fold change vs veh, ARL8B / RFU, ZBTB11 / Fold change vs veh, ZBTB11 / RFU, TAMM41 / Fold change vs veh, TAMM41 / RFU, KIAA1704 /// LOC100996395 / Fold change vs veh, KIAA1704 /// LOC100996395 / RFU, ING1 / Fold change vs veh, ING1 / RFU, TRMT61B / Fold change vs veh, TRMT61B / RFU, FUBP3 / Fold change vs veh, FUBP3 / RFU, TP53 / Fold change vs veh, TP53 / RFU, TNKS2 / Fold change vs veh, TNKS2 / RFU, ZFP14 / Fold change vs veh, ZFP14 / RFU, ACTR2 / Fold change vs veh, ACTR2 / RFU, PPP3R1 / Fold change vs veh, PPP3R1 / RFU, PIK3R1 / Fold change vs veh, PIK3R1 / RFU, HNRNPA1 / Fold change vs veh, HNRNPA1 / RFU, RNF170 / Fold change vs veh, RNF170 / RFU, ZNF28 / Fold change vs veh, ZNF28 / RFU, RNGTT / Fold change vs veh, RNGTT / RFU, OGT / Fold change vs veh, OGT / RFU, BRD1 / Fold change vs veh, BRD1 / RFU, MARS / Fold change vs veh, MARS / RFU, ZNF655 / Fold change vs veh, ZNF655 / RFU, FAHD1 / Fold change vs veh, FAHD1 / RFU, BDP1 / Fold change vs veh, BDP1 / RFU, LRRCC1 / Fold change vs veh, LRRCC1 / RFU, ARID1A / Fold change vs veh, ARID1A / RFU, ZNF146 / Fold change vs veh, ZNF146 / RFU, ZNF330 / Fold change vs veh, ZNF330 / RFU, GPN3 / Fold change vs veh, GPN3 / RFU, C9orf123 / Fold change vs veh, C9orf123 / RFU, N4BP2L2 / Fold change vs veh, N4BP2L2 / RFU, ARFIP1 / Fold change vs veh, ARFIP1 / RFU, FAM179B / Fold change vs veh, FAM179B / RFU, BCL10 / Fold change vs veh, BCL10 / RFU, UHRF1BP1L / Fold change vs veh, UHRF1BP1L / RFU, BET1 / Fold change vs veh, BET1 / RFU, CNOT2 / Fold change vs veh, CNOT2 / RFU, ZNF268 / Fold change vs veh, ZNF268 / Fold change vs veh, ZNF507 / RFU, DGCR2 / Fold change vs veh, DGCR2 / RFU, WDSUB1 / Fold change vs veh, WDSUB1 / Fold change vs veh, HSP90B1 /// MIR3652 / RFU, ADSS / Fold change vs veh, ADSS / RFU, GK / Fold change vs veh, GK / RFU, ZNF148 / Fold change vs veh, ZNF148 / RFU, TAF9 / Fold change vs veh, TAF9 / RFU, SLC1A5 / Fold change vs veh, SLC1A5 / RFU, SLMO2 / Fold change vs veh, SLMO2 / RFU, ABCC4 / Fold change vs veh, ABCC4 / RFU, LOC101060439 /// RAP1B / Fold change vs veh, LOC101060439 /// RAP1B / RFU, RFX7 / Fold change vs veh, RFX7 / RFU, GTPBP10 / Fold change vs veh, GTPBP10 / RFU, CNEP1R1 / Fold change vs veh, CNEP1R1 / RFU, BIVM-ERCC5 /// ERCC5 / Fold change vs veh, BIVM-ERCC5 /// ERCC5 / RFU, ILF3 / Fold change vs veh, ILF3 / RFU 11762660_at / Fold change /veh 11762660_at / RFU VCAN (11757783_s_at) / Fold change /veh VCAN (11757783_s_at) / RFU DDX43 (11728927_at) / Fold change /veh DDX43 (11728927_at) / RFU KRT8 (11758188_x_at) / Fold change /veh KRT8 (11758188_x_at) / RFU NKD1 (11759106_at) / Fold change /veh NKD1 (11759106_at) / RFU SRD5A1 (11742802_a_at) / Fold change /veh SRD5A1 (11742802_a_at) / RFU TPSAB1 /// TPSB2 (11721975_s_at) / Fold change /veh TPSAB1 /// TPSB2 (11721975_s_at) / RFU GSTM3 (11746129_a_at) / Fold change /veh GSTM3 (11746129_a_at) / RFU IL23R (11737362_x_at) / Fold change /veh IL23R (11737362_x_at) / RFU TMEM51 (11727254_a_at) / Fold change /veh TMEM51 (11727254_a_at) / RFU PIWIL2 (11732686_x_at) / Fold change /veh PIWIL2 (11732686_x_at) / RFU ORM1 (11744905_x_at) / Fold change /veh ORM1 (11744905_x_at) / RFU CCDC152 (11743942_at) / Fold change /veh CCDC152 (11743942_at) / RFU ECM1 (11717891_a_at) / Fold change /veh ECM1 (11717891_a_at) / RFU IL23R (11748794_a_at) / Fold change /veh IL23R (11748794_a_at) / RFU TNFAIP8L3 (11732012_x_at) / Fold change /veh TNFAIP8L3 (11732012_x_at) / RFU MBOAT4 (11741988_at) / Fold change /veh MBOAT4 (11741988_at) / RFU 11764193_at / Fold change /veh 11764193_at / RFU TMEM53 (11763286_at) / Fold change /veh TMEM53 (11763286_at) / RFU MAGEB2 (11727129_at) / Fold change /veh MAGEB2 (11727129_at) / RFU TMEM200A (11744735_a_at) / Fold change /veh TMEM200A (11744735_a_at) / RFU CCDC152 (11751479_a_at) / Fold change /veh CCDC152 (11751479_a_at) / RFU FAM211A (11726209_a_at) / Fold change /veh FAM211A (11726209_a_at) / RFU RGS16 (11746705_a_at) / Fold change /veh RGS16 (11746705_a_at) / RFU VCAN (11755009_s_at) / Fold change /veh VCAN (11755009_s_at) / RFU RHOB (11743442_s_at) / Fold change /veh RHOB (11743442_s_at) / RFU RGS16 (11720943_a_at) / Fold change /veh RGS16 (11720943_a_at) / RFU RGS16 (11720944_at) / Fold change /veh RGS16 (11720944_at) / RFU, VPS4B / Fold change vs veh, VPS4B / RFU, CREB1 / Fold change vs veh, CREB1 / RFU, DNAJC13 / Fold change vs veh, DNAJC13 / RFU, GNAQ / Fold change vs veh, GNAQ / RFU, CDK5R1 / Fold change vs veh, CDK5R1 / RFU, ZRANB3 / Fold change vs veh, ZRANB3 / RFU, CUL4A / Fold change vs veh, CUL4A / RFU, CCNY / Fold change vs veh, CCNY / RFU, UFL1 / Fold change vs veh, UFL1 / RFU, COG3 / Fold change vs veh, COG3 / RFU, DIAPH2 / Fold change vs veh, DIAPH2 / RFU, SKA2 / Fold change vs veh, SKA2 / RFU, AFF3 / Fold change vs veh, AFF3 / RFU, LMF1 / Fold change vs veh, LMF1 / RFU, IPO11 / Fold change vs veh, IPO11 / RFU, DFFB / Fold change vs veh, DFFB / RFU, FOXP1 / Fold change vs veh, FOXP1 / RFU, CARD8 / Fold change vs veh, CARD8 / RFU, STRN3 / Fold change vs veh, STRN3 / RFU, ADK / Fold change vs veh, ADK / RFU, RASSF2 / Fold change vs veh, RASSF2 / RFU, WIPF1 / Fold change vs veh, WIPF1 / RFU, LARP1B / Fold change vs veh, LARP1B / RFU, RASA1 / Fold change vs veh, RASA1 / RFU, RB1 / Fold change vs veh, RB1 / RFU, PPFIA1 / Fold change vs veh, PPFIA1 / RFU, MAT2A / Fold change vs veh, MAT2A / RFU, CCT5 / Fold change vs veh, CCT5 / RFU, WDR92 / Fold change vs veh, WDR92 / RFU, CUX1 / Fold change vs veh, CUX1 / RFU, TTC7A / Fold change vs veh, TTC7A / RFU, TMEM135 / Fold change vs veh, TMEM135 / RFU, DEPTOR / Fold change vs veh, DEPTOR / RFU, CPM / Fold change vs veh, CPM / RFU, DNAJB6 / Fold change vs veh, DNAJB6 / RFU, CACNA2D3 / Fold change vs veh, CACNA2D3 / RFU, DTX4 / Fold change vs veh, DTX4 / RFU, TFCP2 / Fold change vs veh, TFCP2 / RFU, GMCL1 /// GMCL1P1 / Fold change vs veh, GMCL1 /// GMCL1P1 / RFU, AEBP2 / Fold change vs veh, AEBP2 / RFU, SNHG1 /// SNORD22 /// SNORD25 /// SNORD26 /// SNORD27 /// SNORD28 /// SNORD29 /// SNORD31 / Fold change vs veh, SNHG1 /// SNORD22 /// SNORD25 /// SNORD26 /// SNORD27 /// SNORD28 /// SNORD29 /// SNORD31 / Fold change (Aza/veh), C12orf56 (ProbeSet 11735607_a_at) / Fold change (ACY-1035/veh), C12orf56 (ProbeSet 11735607_a_at) / Fold change (Aza/veh), FGFR1OP (ProbeSet 11751329_s_at) / Fold change (ACY-1035/veh), FGFR1OP (ProbeSet 11751329_s_at) / Fold change (Aza/veh), VPS36 (ProbeSet 11739960_a_at) / Fold change (ACY-1035/veh), VPS36 (ProbeSet 11739960_a_at) / RFU SYPL1 (11715823_x_at) / Fold change /veh SYPL1 (11715823_x_at) / RFU IGFBP7 (11715501_s_at) / Fold change /veh IGFBP7 (11715501_s_at) / RFU REEP3 (11722064_at) / Fold change /veh REEP3 (11722064_at) / RFU IGLL1 (11728026_x_at) / Fold change /veh IGLL1 (11728026_x_at): dose or concentration left out as unconfirmed
Details: MV-4-11 cells, 48 hours

In the case of `Nc1ccc(-c2cccs2)cc1NC(=O)c1ccc2c(c1)cc(C1CC1)n2CCN1CCOCC1` [ACY-1035], the “RFU TMPRSS4 (11748680_a_at)” value is reported as 52.95 RFU.
